Reference: patent US6605642B2, “Inhibitors of formation of advanced glycation endproducts (AGES)” (City of Hope, priority 1999, dated 2003)

Tests used:
Format in all cases: biochemical
[1] = molecular target: T1, hemoglobin (HbA1C formation) (Homo sapiens, UniProt P68871+P69905); test: Hemoglobin-δ-Gluconolactone (δ-Glu) assay, early stage glycation; settings: 1 millimole/L inhibitor, δ-Glu treated whole blood, 16 hours at 37° C.
T1 construct: δ-Glu, an oxidized analogue of glucose, can react rapidly with hemoglobin within the red cells; from tissue; host or cells: fresh whole blood (red blood cells) from normal volunteers
T1 sequence (P68871 2-147 limits assumed): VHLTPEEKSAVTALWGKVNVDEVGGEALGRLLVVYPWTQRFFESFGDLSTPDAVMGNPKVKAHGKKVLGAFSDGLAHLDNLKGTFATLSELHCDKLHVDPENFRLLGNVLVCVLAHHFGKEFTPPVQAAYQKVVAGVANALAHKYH
T1 sequence (P69905 2-142 limits assumed): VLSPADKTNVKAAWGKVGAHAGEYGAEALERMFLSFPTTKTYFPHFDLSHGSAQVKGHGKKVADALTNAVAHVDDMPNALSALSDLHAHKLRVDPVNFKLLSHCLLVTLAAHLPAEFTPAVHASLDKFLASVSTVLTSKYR
Experimental: The δ-Glu assay is a specific method for investigation of inhibitors of the early stage of glycation. Evaluation of early glycation products (Amadori) formation on hemoglobin (HbA1C) is performed by incubating red blood cells with an oxidized form of glucose in the presence and the absence of the inhibitor compound followed by determination of HbA1C in the test versus the control (Rahbar and Nadler., 1999). […] By contrast, glucose requires weeks for an equivalent reaction to occur. We have used this finding to devise an assay method to measure early stage glycation of hemoglobin (Amadori product) and an assay to evaluate the ability of an inhibitor to inhibit HbA1C formation. Briefly, fresh blood was drawn in potassium-EDTA and prepared for incubation within 30 minutes of collection by mixing 200 μL of blood with 40 μL of either phosphate buffered-saline (PBS), pH 7.4, alone, PBS containing 50 millimoles/L δ-Glu (Sigma), or PBS containing 50 millimoles/L δ-Glu plus 1 millimole/L inhibitor. After incubation for 16 hours at 37° C., the percentage of glycated hemoglobin present was determined. The percentage of glycated Hb (HbA1C) was determined using a dedicated ion-exchange HPLC system (BIORAD DIAMAT). Blood samples were analyzed in triplicate. The % inhibition of HbA1C formation by the compound was calculated according to the following formula: […]
where A is HbA1C concentration in the baseline control tube not treated with δ-Glu, B is the HbA1C concentration in blood incubated with δ-Glu, C is the HbA1C content of the test tube treated both with δ-Glu and the inhibitor compound.
The amount of (HbA1C) formation using δ-Glu treated whole blood from normal volunteers using 1 millimole/L of the compounds is shown in FIG. 1. Levels of HbA1C in the δ-Glu treated blood is twice as high as the baseline control. Various inhibitors (compounds LR93-LR102) show different levels of HbA1C depending on their inhibitory potencies.

BSA = molecular target: T2, BSA (Bos taurus, UniProt P02769); test: BSA-Glucose assay, glucose-mediated development of fluorescence of BSA; settings: 7 days at 37° C., fluorescence 330/410 nm; for Percent Inhibition in the BSA-Glucose Assay: 1 millimole/L inhibitor
T2 construct: BSA (fraction V, essentially fatty acid free, low endotoxin) from Sigma; purchased Sigma
T2 sequence (P02769 25-607): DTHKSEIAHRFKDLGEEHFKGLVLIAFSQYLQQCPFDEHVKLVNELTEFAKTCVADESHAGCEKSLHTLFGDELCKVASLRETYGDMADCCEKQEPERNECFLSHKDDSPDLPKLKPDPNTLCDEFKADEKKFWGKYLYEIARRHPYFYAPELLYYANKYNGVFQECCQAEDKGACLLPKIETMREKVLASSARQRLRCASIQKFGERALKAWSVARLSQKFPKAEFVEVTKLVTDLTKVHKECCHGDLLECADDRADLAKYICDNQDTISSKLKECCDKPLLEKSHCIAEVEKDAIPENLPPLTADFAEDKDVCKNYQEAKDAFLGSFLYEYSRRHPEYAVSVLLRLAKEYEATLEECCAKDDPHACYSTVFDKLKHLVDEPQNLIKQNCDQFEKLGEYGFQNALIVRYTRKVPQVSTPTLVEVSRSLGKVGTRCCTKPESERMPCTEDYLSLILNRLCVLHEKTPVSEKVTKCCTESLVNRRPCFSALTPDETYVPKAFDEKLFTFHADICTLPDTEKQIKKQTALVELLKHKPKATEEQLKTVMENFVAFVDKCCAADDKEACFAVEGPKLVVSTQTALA
Experimental: This test is used to evaluate the ability of the inhibitors to inhibit glucose-mediated development of fluorescence of BSA (Ikeda et al., 1996). Triplicate samples of BSA (fraction V, essentially fatty acid free, low endotoxin) from Sigma 50 mg/mL and 800 mM glucose (144 mg/mL) in […] phosphate buffer pH 7.4 containing NaN3 0.2 g/L was incubated under aseptic conditions at 37° C. for 7 days in the presence or absence of various concentrations of the compounds. After 7 days of incubation each sample was examined for the development of specific fluorescence (excitation, 330 nm; emission, 410 nm). The % inhibition of AGE formation in the test sample versus control was calculated for each inhibitor compound. Aminoguanidine (50 mM) was used as a positive control.
This assay method is mostly for the inhibitors of late glycation and AGE formation (post-Amadori). The results obtained by this assay show all ten compounds investigated here have strong inhibitory effects on post-Amadori glycation, AGE formation and AGE crosslinking.

G.K. peptide = test: N-Acetyl-Glycyl-Lysine Methyl Ester (G.K. Peptide)-Ribose assay; settings: 24 hours at 37° C., fluorescence 330/415 nm; for Percent Inhibition in the G.K.-Ribose Assay: 1 millimole/L inhibitor
Experimental: Evaluation of the late glycation products (AGEs), and AGE-inhibition by the new inhibitor compounds was tested by incubation of G.K. peptide in ribose in the presence or the absence of the agent, followed by determination of chromophores generated in the course of glycation and AGE formation through determination of their specific fluorescence. The Nagaraj et al. (1996) method used to evaluate the ability of the compounds of the present invention to inhibit the crosslinking of N-acetylglycyl-lysine methyl ester in the presence of ribose was as follows: Stock Solutions: 0.5 M sodium phosphate buffer pH 7.4 containing NaN3 0.2 g/L GK peptide (Sigma) 80 mg/mL in 0.5 M sodium phosphate buffer pH 7.4 Ribose 800 mM (120 mg/mL) in 0.5 M phosphate buffer Triplicate samples of equal volumes (0.1 mL) of the 3 stock solutions were mixed together, filtered through a 0.2 micron filter (Corning) and incubated under aseptic conditions for 24 hours at 37° C. The inhibitor compounds were added to a final concentration of 1 millimole/L. At the end of the incubation period, samples were analyzed for their specific fluorescence (excitation, 330 nm; emission, 415 nm). The % inhibition by different concentrations of inhibitor was calculated as described above. Aminoguanidine was used at 50 mM as a positive control. […] The results of this assay indicate that all ten compounds investigated here have strong inhibitory effects and block specific fluorescence of proteins AGE in these separate determinations.

[2] = molecular target: T3, collagen-AGE-BSA crosslinking (Bos taurus, UniProt P02769); test: ELISA assay, crosslinking of AGE-BSA to rat tail-tendon-collagen coated plate; settings: for Inhibition of AGE-protein crosslinking (in words): ELISA, FIGS. 4A-C, 0.1-0.5 mM; for Effectiveness relative to pyridoxamine, inhibition of AGE-protein-crosslinking: compared with pyridoxamine (Khalifah et al., 1999)
T3 construct: purchased Becton Dickinson
T3 sequence (P02769 25-607): as above
Experimental: A special ELISA technique (Al-abed et al., 1999) was used to evaluate the ability of the compounds being studied to inhibit the crosslinking of glycated-BSA (AGE-BSA) to a rat tail-tendon-collagen coated 96 well plate (Biocoat Cell Environment, Becton Dickinson). Crosslinking of AGE-BSA to a rat tail-tendon-collagen coated plate was performed with and without the testing compound at the desired concentrations. The uncross-linked AGE-BSA was then removed by washing the wells. The AGE-BSA crosslinked to the tail-tendon-collagen coated plate was then quantified by a polyclonal antibody raised against AGE-RNase in our laboratory. Positive results in the assay indicate that the inhibitor is capable of reducing the amount of AGE-BSA which crosslinks with collagen. Aminoguanidine was used as positive control.

SMILES | Percent Inhibition of HbA1c formation in the δ-Glu Assay [1] [%] | Percent Inhibition in the BSA-Glucose Assay (BSA) [%] | Percent Inhibition in the G.K.-Ribose Assay (G.K. peptide) [%] | Inhibition of AGE-protein crosslinking (in words) [2] | Effectiveness relative to pyridoxamine, inhibition of AGE-protein-crosslinking [2] [times] | inhibition at 50000 µM (BSA; aminoguanidine 50 mM, read-out: Percent Inhibition in the BSA-Glucose Assay (positive control)) [%] | Percent Inhibition in the G.K.-Ribose Assay (positive control) (G.K. peptide; aminoguanidine 50 mM) [%]
COC(=O)CC[C@H](NC(=O)C(C)(C)Oc1ccc(NC(=O)Nc2cc(Cl)cc(Cl)c2)cc1)C(=O)O [LR96] | 57.1 | 30 | 42.4 | strong inhibitors of AGE-protein crosslinking | 2 to 3 | – | –
CC(C)(Oc1ccc(Cl)cc1)C(=O)NC1(C(=O)O)CCCCC1 [LR93] | 49.2 | 35 | 42.8 | – | – | – | –
CC(C)(Oc1ccc(NC(=O)Nc2cc(Cl)cc(Cl)c2)cc1)C(=O)NCCCC(=O)O [LR97] | 36.5 | 26.2 | 33.3 | – | – | – | –
N=C(N)NN [AG, aminoguanidine, reference compound] | 12.1 | – | – | – | – | 74 | 67
CC(C)(Oc1ccc(NC(=O)Nc2cc(Cl)cc(Cl)c2)cc1)C(=O)Nc1ccc(C(=O)O)cc1 [LR99] | 53.9 | 30.9 | 39.5 | strong inhibitors of AGE-protein crosslinking | 2 to 3 | – | –
CC(C)C[C@H](NC(=O)C(C)(C)Oc1ccc(NC(=O)Nc2cc(Cl)cc(Cl)c2)cc1)C(=O)O [LR95] | 61.9 | 34 | 29.5 | – | – | – | –
CC(C)(Oc1ccc(NC(=O)Nc2cc(Cl)cc(Cl)c2)cc1)C(=O)N1CCCCC1C(=O)O (stereo not shown) [LR94] | 28.5 | 26.8 | 33.7 | – | – | – | –
CC(C)(Oc1ccc(NC(=O)Nc2cc(Cl)cc(Cl)c2)cc1)C(=O)NC1(C(=O)O)CCCC1 [LR100] | 52.4 | 31.9 | 28.5 | – | – | – | –
CC(C)(Oc1ccc(NC(=O)Nc2cc(Cl)cc(Cl)c2)cc1)C(=O)NCC(=O)O [LR98] | 42.8 | 26.7 | 37.3 | – | – | – | –
